Reference: US20240158408A1, “Nitrogen-Containing Heterocyclic Compound, Pharmaceutical Compositions thereof and Use thereof” (280 Bio, Inc., priority 2022, published 2024)

biological target: PI3Kα (Homo sapiens (Human), UniProt P42336); assay: ADP-Glo Kinase Assay, PI3Kα enzyme activity inhibition; settings: not given
Sequence (P42336 whole entry): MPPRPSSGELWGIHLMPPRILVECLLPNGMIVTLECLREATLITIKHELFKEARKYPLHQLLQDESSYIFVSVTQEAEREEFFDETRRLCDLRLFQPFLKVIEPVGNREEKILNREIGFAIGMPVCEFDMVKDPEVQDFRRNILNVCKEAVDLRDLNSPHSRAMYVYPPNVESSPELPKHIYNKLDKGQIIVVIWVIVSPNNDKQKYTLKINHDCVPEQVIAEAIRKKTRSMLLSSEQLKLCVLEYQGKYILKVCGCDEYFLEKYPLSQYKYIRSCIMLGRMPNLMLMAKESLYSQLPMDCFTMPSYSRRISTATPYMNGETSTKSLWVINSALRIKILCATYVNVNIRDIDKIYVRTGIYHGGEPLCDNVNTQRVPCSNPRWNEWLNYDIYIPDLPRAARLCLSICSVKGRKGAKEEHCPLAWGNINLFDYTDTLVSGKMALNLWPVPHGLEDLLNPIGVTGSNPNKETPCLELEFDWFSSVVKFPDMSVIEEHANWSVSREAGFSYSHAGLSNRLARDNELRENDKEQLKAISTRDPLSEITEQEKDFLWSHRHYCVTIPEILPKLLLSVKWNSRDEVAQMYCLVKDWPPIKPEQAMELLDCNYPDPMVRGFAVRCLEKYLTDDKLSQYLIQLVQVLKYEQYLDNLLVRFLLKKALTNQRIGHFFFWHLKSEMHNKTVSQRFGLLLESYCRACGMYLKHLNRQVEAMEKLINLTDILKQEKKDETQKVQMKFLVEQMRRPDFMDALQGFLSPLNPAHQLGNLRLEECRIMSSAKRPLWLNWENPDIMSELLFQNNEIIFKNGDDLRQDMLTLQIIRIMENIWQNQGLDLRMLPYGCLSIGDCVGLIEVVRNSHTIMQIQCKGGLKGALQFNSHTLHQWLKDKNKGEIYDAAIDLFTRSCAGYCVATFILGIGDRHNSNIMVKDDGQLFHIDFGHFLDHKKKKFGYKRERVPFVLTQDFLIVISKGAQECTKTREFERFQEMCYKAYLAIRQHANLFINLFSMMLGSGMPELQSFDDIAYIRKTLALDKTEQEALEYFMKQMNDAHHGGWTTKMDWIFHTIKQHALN
Sequence (P27986 whole entry partner): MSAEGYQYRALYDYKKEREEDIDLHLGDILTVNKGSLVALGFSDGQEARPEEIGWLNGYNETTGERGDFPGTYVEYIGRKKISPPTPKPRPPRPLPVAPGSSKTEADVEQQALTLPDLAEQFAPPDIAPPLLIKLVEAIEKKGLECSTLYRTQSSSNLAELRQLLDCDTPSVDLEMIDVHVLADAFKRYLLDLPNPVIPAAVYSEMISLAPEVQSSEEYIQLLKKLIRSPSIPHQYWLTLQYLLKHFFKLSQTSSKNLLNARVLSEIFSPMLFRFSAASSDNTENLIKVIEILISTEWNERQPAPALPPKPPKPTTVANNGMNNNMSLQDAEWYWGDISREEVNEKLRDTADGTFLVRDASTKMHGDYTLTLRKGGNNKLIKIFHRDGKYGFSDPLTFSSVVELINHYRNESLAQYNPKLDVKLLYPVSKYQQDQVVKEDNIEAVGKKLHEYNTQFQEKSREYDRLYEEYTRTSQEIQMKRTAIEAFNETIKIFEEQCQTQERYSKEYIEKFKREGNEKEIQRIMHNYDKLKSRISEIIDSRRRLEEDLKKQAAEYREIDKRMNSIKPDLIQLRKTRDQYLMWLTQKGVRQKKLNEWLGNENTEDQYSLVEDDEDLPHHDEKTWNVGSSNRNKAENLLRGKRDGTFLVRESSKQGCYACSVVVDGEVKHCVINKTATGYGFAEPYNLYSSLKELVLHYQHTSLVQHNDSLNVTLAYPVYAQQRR

Row | Structure (SMILES) | PI3Kaα IC50
1 | CC(C)n1nc2ccc(NC(=O)c3cc(F)cc(C(F)(F)F)c3)c3c2c1C(=O)NC3c1cc(F)ccc1Cl (centres unmarked) [YL118] | ++ (key: +represents IC50<=250 nM; ++ represents 250 nM<IC50<=10 μM; +++ represents IC50>10 μM)
2 | CCn1nc2ccc(NC(=O)c3cc(F)cc(C(F)(F)F)c3)c3c2c1C(=O)NC3c1cc(F)ccc1Cl (centres unmarked) [YL115] | +++ (key: +represents IC50<=250 nM; ++ represents 250 nM<IC50<=10 μM; +++ represents IC50>10 μM)

same assay, conditions: ADP-Glo; ATP 25 μM; PIP2 50 μg/mL; 1 hour at room temperature

Row | Structure (SMILES) | PI3Kaα IC50
3 | O=C(Nc1cc(Br)c2c3c1C(c1ccccc1)NC(=O)N3CC2)c1cc(F)cc(C(F)(F)F)c1 (centres unmarked) [YL064] | +++ (+++ represents IC50>10 μM)
4 | O=C(Nc1cc(NC(=O)C(F)(F)F)c2c3c1C(c1cc(F)ccc1Cl)NC(=O)N3CC2)c1cc(F)cc(C(F)(F)F)c1 (centres unmarked) [YL009] | ++ (++ represents 250 nM<IC50<=10 μM)
5 | Cc1cc(NC(=O)c2cc(F)cc(C(F)(F)F)c2)c2c3c1CCN3C(=O)NC2c1cc(F)ccc1Cl (centres unmarked) [YL020] | +++ (+++ represents IC50>10 μM)
6 | O=C1NC(c2cc(F)ccc2Cl)c2c(Nc3ncnc4c(Cl)cc(F)cc34)ccc3c2N1CC3 (centres unmarked) [YL052] | +++ (+++ represents IC50>10 μM)
7 | C[C@H](O)C(=O)Nc1cc(NC(=O)c2cc(F)cc(C(F)(F)F)c2)c2c3c1CCN3C(=O)NC2c1cc(F)ccc1Cl (some centres unmarked) [YL030] | +++ (+++ represents IC50>10 μM)
8 | Cc1ncc(-c2cc(NC(=O)c3cc(F)cc(C(F)(F)F)c3)c3c4c2CCN4C(=O)NC3c2cc(F)ccc2Cl)[nH]1 (centres unmarked) [YL067] | +++ (+++ represents IC50>10 μM)
9 | Nc1n[nH]c2ccc(-c3cc(NC(=O)c4cc(F)cc(C(F)(F)F)c4)c4c5c3CCN5C(=O)NC4c3cc(F)ccc3Cl)cc12 (centres unmarked) [YL013] | ++ (++ represents 250 nM<IC50<=10 μM)
10 | O=C(Nc1cc(NC2CCOCC2)c2c3c1C(c1cc(F)ccc1Cl)NC(=O)N3CC2)c1cc(F)cc(C(F)(F)F)c1 (centres unmarked) [YL028] | ++ (++ represents 250 nM<IC50<=10 μM)
11 | Nc1cc(NC(=O)c2cc(F)cc(C(F)(F)F)c2)c2c3c1CCN3C(=O)NC2c1cccc2ccccc12 (centres unmarked) [YL060] | +++ (+++ represents IC50>10 μM)

The remaining lines, values ahead:

Row | PI3Kaα IC50 | Structure (SMILES)
12 | +++ (+++ represents IC50>10 μM) | N#Cc1cc(NC(=O)c2cc(F)cc(C(F)(F)F)c2)c2c3c1CCN3C(=O)NC2c1cc(Cl)ccc1Cl (single isomer, unassigned) [YL101-P2]
13 | +++ (+++ represents IC50>10 μM) | N#Cc1c(-c2cc(NC(=O)c3cc(F)cc(C(F)(F)F)c3)c3c4c2CCN4C(=O)NC3c2cc(F)ccc2Cl)ccc2[nH]ncc12 (centres unmarked) [YL142]
14 | ++ (++ represents 250 nM<IC50<=10 μM) | N#Cc1ncccc1-c1cc(NC(=O)c2cc(F)cc(C(F)(F)F)c2)c2c3c1CCN3C(=O)NC2c1cc(F)ccc1Cl (centres unmarked) [YL136]
15 | +++ (+++ represents IC50>10 μM) | O=C(Nc1cc(-c2ccc3ncnn3c2F)c2c3c1C(c1cc(F)ccc1Cl)NC(=O)N3CC2)c1cc(F)cc(C(F)(F)F)c1 (centres unmarked) [YL129]
16 | +++ (+++ represents IC50>10 μM) | O=C(Nc1cc(-c2ccc3ncnn3c2C(F)(F)F)c2c3c1C(c1cc(F)ccc1Cl)NC(=O)N3CC2)c1cc(F)cc(C(F)(F)F)c1 (centres unmarked) [YL145]
17 | +++ (+++ represents IC50>10 μM) | N#Cc1cc(N)ncc1-c1cc(NC(=O)c2cc(F)cc(C(F)(F)F)c2)c2c3c1CCN3C(=O)NC2c1cc(F)ccc1Cl (centres unmarked) [YL152]
18 | +++ (+++ represents IC50>10 μM) | O=C(Nc1cc(-c2ccc3ncnn3c2Br)c2c3c1C(c1cc(F)ccc1Cl)NC(=O)N3CC2)c1cc(F)cc(C(F)(F)F)c1 (centres unmarked) [YL139]

same assay, conditions: PI3Kaα IC50

Row | Structure (SMILES) | IC50 [µM]
19 | Nc1cc(NC(=O)c2cc(F)cc(C(F)(F)F)c2)c2c3c1CCN3C(=O)NC2c1cc(F)ccc1C(F)(F)F (centres unmarked) [YL096] | 0.25 to 10

same assay, conditions: PI3Kaα IC50, ADP-Glo; ATP 25 μM; PIP2 50 μg/mL; 1 hour at room temperature

Row | IC50 [µM] | Structure (SMILES)
20 | 0.25 to 10 | Nc1cc(Nc2nccc3c(C(F)(F)F)cc(F)cc23)c2c3c1CCN3C(=O)NC2c1cc(F)ccc1Cl (centres unmarked) [YL086]
21 | > 10 | N#Cc1c(-c2cc(NC(=O)c3cc(F)cc(C(F)(F)F)c3)c3c4c2CCN4C(=O)NC3c2cc(F)ccc2Cl)ccc2ncnn12 (single isomer, unassigned) [YL108-P2]
22 | 0.25 to 10 | Nc1cc(-c2nc3cc(Cl)ccc3[nH]2)c2c3c1CCN3C(=O)NC2c1cc(F)ccc1Cl (centres unmarked) [YL099]

Row | Structure (SMILES) | IC50 [µM]
23 | O=C(Nc1cc(Br)c2c3c1C(c1cc(Cl)ccc1Cl)NC(=O)N3CC2)c1cc(F)cc(C(F)(F)F)c1 (centres unmarked) [YL093] | 0.25 to 10
